Assay results: patent publication US20190322676A1, “CERAMIDE GALACTOSYLTRANSFERASE INHIBITORS FOR THE TREATMENT OF DISEASE” (BioMarin Pharmaceutical Inc., priority 2016, published 2019)
Counter-ions that a name gives are not always drawn.

These molecules were tested against T1, human CGT (ceramide galactosyltransferase), CHO/CGT lysate (Homo sapiens, UniProt Q16880) (assay: CGT enzyme assay, RapidFire/MS/MS readout with 0.01% Tween added (Table 1 ranges with two asterisks **)). Settings: CGT enzymatic assay; range with two asterisks (**): RapidFire/MS/MS method with 0.01% Tween added.
T1 construct: Full-length human CGT cDNA was cloned into the BamH1/Xho1 site of pcDNA3.1 (+); expressed in transfected cells; host or cells: Chinese hamster ovary (CHO) cells; lysate prepared with M-PER
T1 sequence (Q16880 21-541): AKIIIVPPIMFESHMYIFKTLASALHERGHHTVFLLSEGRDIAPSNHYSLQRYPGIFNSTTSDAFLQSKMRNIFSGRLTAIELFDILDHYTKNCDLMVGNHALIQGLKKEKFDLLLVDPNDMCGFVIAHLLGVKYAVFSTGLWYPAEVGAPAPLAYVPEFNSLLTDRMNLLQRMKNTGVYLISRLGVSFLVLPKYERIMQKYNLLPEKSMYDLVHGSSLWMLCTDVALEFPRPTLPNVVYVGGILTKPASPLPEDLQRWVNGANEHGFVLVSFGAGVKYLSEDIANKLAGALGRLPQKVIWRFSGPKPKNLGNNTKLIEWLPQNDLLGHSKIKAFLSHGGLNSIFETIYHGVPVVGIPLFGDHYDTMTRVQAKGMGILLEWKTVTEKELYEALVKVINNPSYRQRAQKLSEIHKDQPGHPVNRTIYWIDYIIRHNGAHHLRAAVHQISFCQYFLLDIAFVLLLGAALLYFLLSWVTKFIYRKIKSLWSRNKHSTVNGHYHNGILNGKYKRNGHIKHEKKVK
Assay type: biochemical
Procedure, shortened: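 IC50s come from variable-slope dose-response fits of internal-standard-normalized C6-NBD-dihydro-galactosylceramide, measured by RapidFire/MS/MS (ESI negative). Reactions: 1 h, 37 °C, human CGT-expressing CHO lysate (4 μg), 0.001–50 μM compound, 10 μM NBD-dihydro-ceramide, 17.5 μM UDP-galactose, 0.5% DMSO, pH 7.2; 0.01% Tween 80 added for ** values.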

`CC(C)Oc1cc(C(F)(F)[C@@H](NS(=O)(=O)c2ccc3cc(OC4CCCC4)ccc3c2)C(=O)N2CCC(N)CC2)ccc1Cl` [Compound 172-2, (S)—N-(3-(4-aminopiperidin-1-yl)-1-(4-chloro-3-isopropoxyphenyl)-1,1-difluoro-3-oxopropan-2-yl)-6-(cyclopentyloxy) naphthalene-2-sulfonamide trifluoroacetate] and `NC1CCN(C(=O)[C@H](NS(=O)(=O)c2ccc3cc(OC4CCCC4)ccc3c2)C(F)(F)c2ccc(Cl)c(OC3CC3)c2)CC1` [Compound 168-2, (S)—N-(3-(4-aminopiperidin-1-yl)-1-(4-chloro-3-cyclopropoxyphenyl)-1,1-difluoro-3-oxopropan-2-yl)-6-(cyclopentyloxy) naphthalene-2-sulfonamide trifluoroacetate] fall in the same range of IC50: 10 to 30 µM for the first, 10 to 30 µM for the second.

First: C=C(c1ccc(C(F)(F)[C@H](NS(=O)(=O)c2ccc(OCC3CCCCC3)cc2)C(=O)N2CCC(N)CC2)cc1)C(F)(F)F [Compound 193-1, (R)-N-(3-(4-aminopiperidin-1-yl)-1,1-difluoro-3-oxo-1-(4-(3,3,3-trifluoroprop-1-en-2-yl)phenyl)propan-2-yl)-4-(cyclohexylmethoxy)benzenesulfonamide]
Second: COc1cc(C(F)(F)[C@@H](NS(=O)(=O)c2ccc(OCC3CCCCC3)cc2)C(=O)N2CCC(N)CC2)ccc1-c1ccc(Cl)cc1 [Compound 146-2, (S)—N-(3-(4-aminopiperidin-1-yl)-1-(4′-chloro-2-methoxy-[1,1′-biphenyl]-4-yl)-1,1-difluoro-3-oxopropan-2-yl)-4-(cyclohexylmethoxy)benzenesulfonamide trifluoroacetate]
The IC50 of the first is lower: < 1 µM for the first, 1 to 10 µM for the second. The first is the more potent here.

First: NC1CCN(C(=O)[C@H](NC(=O)[C@H](O)c2ccc3cc(OC4CCCC4)ccc3c2)C(F)(F)c2ccc(-c3ccc(Cl)cc3)cc2)CC1 [Compound 159-4, (R)—N—((S)-3-(4-aminopiperidin-1-yl)-1-(4′-chloro-[1,1′-biphenyl]-4-yl)-1,1-difluoro-3-oxopropan-2-yl)-2-(6-(cyclopentyloxy)naphthalen-2-yl)-2-hydroxyacetamide trifluoroacetate]
Second: N[C@@H]1CCN(C(=O)[C@@H](NS(=O)(=O)c2ccc3cc(OC4CCCC4)ccc3c2)C(F)(F)c2ccc(-c3ccc(Cl)cc3)cc2)C1 [Compound 149-1, N—((R)-3-((R)-3-aminopyrrolidin-1-yl)-1-(4′-chloro-[1,1′-biphenyl]-4-yl)-1,1-difluoro-3-oxopropan-2-yl)-6-(cyclopentyloxy)naphthalene-2-sulfonamide trifluoroacetate]
The IC50 of the first is higher: 30 to 100 µM for the first, < 1 µM for the second. The second is the more potent here.

First: N[C@H]1CCN(C(=O)[C@@H](NS(=O)(=O)c2ccc3cc(OC4CCCC4)ccc3c2)C(F)(F)c2ccc(-c3ccc(Cl)cc3)cc2)CC1(F)F [Compound 161-3, N—((R)-3-((S)-4-amino-3,3-difluoropiperidin-1-yl)-1-(4′-chloro-[1,1′-biphenyl]-4-yl)-1,1-difluoro-3-oxopropan-2-yl)-6-(cyclopentyloxy)naphthalene-2-sulfonamide trifluoroacetate]
Second: N[C@@H]1CC2CCC1N2C(=O)[C@@H](NS(=O)(=O)c1ccc2cc(OC3CCCC3)ccc2c1)C(F)(F)c1ccc(-c2ccc(Cl)cc2)cc1 (stereo partly drawn) [Compound 180-4]
The IC50 of the first is lower: < 1 µM for the first, 1 to 10 µM for the second. The first is the more potent here.

Compared with `NC1CC2CCC(C1)N2C(=O)[C@H](NS(=O)(=O)c1ccc(OCC2CCCCC2)cc1)C(F)(F)c1ccc(Cl)s1` (stereo partly drawn) [Compound 194-2, N-((2S)-3-(3-amino-8-azabicyclo[3.2.1]octan-8-yl)-1-(5-chlorothiophen-2-yl)-1,1-difluoro-3-oxopropan-2-yl)-4-(cyclohexylmethoxy)benzenesulfonamide], `NC1CC2CCC(C1)N2C(=O)[C@@H](NS(=O)(=O)c1ccc(OCC2CCCCC2)cc1)C(F)(F)c1ccc(Cl)s1` (stereo partly drawn) [Compound 194-1, N-((2R)-3-(3-amino-8-azabicyclo[3.2.1]octan-8-yl)-1-(5-chlorothiophen-2-yl)-1,1-difluoro-3-oxopropan-2-yl)-4-(cyclohexylmethoxy)benzenesulfonamide] is lower in IC50: 30 to 100 µM for the first, 1 to 10 µM for the second. The second is the more potent here.

`N[C@H]1[C@@H]2CC[C@H]1CN(C(=O)[C@@H](NS(=O)(=O)c1ccc(OCC3CCCCC3)cc1)C(F)(F)c1ccc(-c3ccc(Cl)cc3)cc1)C2` [Compound 183-1, N-((R)-3-((1R,5S,8R)-8-amino-3-azabicyclo[3.2.1]octan-3-yl)-1-(4′-chloro-[1,1′-biphenyl]-4-yl)-1,1-difluoro-3-oxopropan-2-yl)-4-(cyclohexylmethoxy)benzenesulfonamide] and `N[C@@H]1CCN(C(=O)[C@@H](NS(=O)(=O)c2ccc(OCC3CCCCC3)cc2)C(F)(F)c2ccc(-c3ccc(Cl)cc3)cc2)C1` [Compound 155-1, N—((R)-3-((R)-3-aminopyrrolidin-1-yl)-1-(4′-chloro-[1,1′-biphenyl]-4-yl)-1,1-difluoro-3-oxopropan-2-yl)-4-(cyclohexylmethoxy)benzenesulfonamide trifluoroacetate] cannot be ordered by IC50: < 1 µM for the first, < 1 µM for the second.

Compared with `NC1CC2CCC(C1)N2C(=O)[C@@H](NC(=O)[C@@H](O)c1ccc(OCC2CCCCC2)cc1)C(F)(F)c1ccc(-c2ccc(Cl)cc2)cc1` (stereo partly drawn) [Compound 152-3, (2S)—N-((2R)-3-(3-amino-8-azabicyclo[3.2.1]octan-8-yl)-1-(4′-chloro-[1,1′-biphenyl]-4-yl)-1,1-difluoro-3-oxopropan-2-yl)-2-(4-(cyclohexylmethoxy)phenyl)-2-hydroxyacetamide trifluoroacetate], `NC1CC2CCC(C1)N2C(=O)[C@H](NC(=O)[C@@H](O)c1ccc(OCC2CCCCC2)cc1)C(F)(F)c1ccc(-c2ccc(Cl)cc2)cc1` (stereo partly drawn) [Compound 152-2, (2S)—N-((2S)-3-(3-amino-8-azabicyclo[3.2.1]octan-8-yl)-1-(4′-chloro-[1,1′-biphenyl]-4-yl)-1,1-difluoro-3-oxopropan-2-yl)-2-(4-(cyclohexylmethoxy)phenyl)-2-hydroxyacetamide trifluoroacetate] is higher in IC50: 1 to 10 µM for the first, 30 to 100 µM for the second. The first is the more potent here.

Compared with `NC1CC2CCC(C1)N2C(=O)[C@H](NS(=O)(=O)c1cc2ccc(OC3CCCC3)cc2s1)C(F)(F)c1ccc(Br)cc1` (stereo partly drawn) [Compound 167-2, N-((2 S)-3-(3-amino-8-azabicyclo[3.2.1]octan-8-yl)-1-(4-bromophenyl)-1,1-difluoro-3-oxopropan-2-yl)-6-(cyclopentyloxy)benzo[b]thiophene-2-sulfonamide trifluoroacetate], `NC1CC2CCC(C1)N2C(=O)[C@H](NC(=O)[C@@H](O)c1ccc2cc(OC3CCCC3)ccc2c1)C(F)(F)c1ccc2cc(Br)ccc2c1` (stereo partly drawn) [Compound 158-2, (2S)—N-((2 S)-3-(3-amino-8-azabicyclo[3.2.1]octan-8-yl)-1-(6-bromonaphthalen-2-yl)-1,1-difluoro-3-oxopropan-2-yl)-2-(6-(cyclopentyloxy)naphthalen-2-yl)-2-hydroxyacetamide trifluoroacetate] is higher in IC50: 1 to 10 µM for the first, 30 to 100 µM for the second.

`NC1CCN(C(=O)[C@H](NS(=O)(=O)c2ccc(OCC3CCCCC3)cc2)C(F)(F)c2ccc(-c3ccc(Cl)cc3)cn2)CC1` [Compound 163-2, (S)—N-(3-(4-aminopiperidin-1-yl)-1-(5-(4-chlorophenyl)pyridin-2-yl)-1,1-difluoro-3-oxopropan-2-yl)-4-(cyclohexylmethoxy) benzenesulfonamide] and `O=C([C@H](NS(=O)(=O)c1ccc(OCC2CCCCC2)cc1)C(F)(F)c1ccc(-c2ccc(Cl)cc2)cc1)N1CCNCC1` [Compound 151-2, (S)—N-(1-(4′-chloro-[1,1′-biphenyl]-4-yl)-1,1-difluoro-3-oxo-3-(piperazin-1-yl)propan-2-yl)-4-(cyclohexylmethoxy) benzenesulfonamide trifluoroacetate] fall in the same range of IC50: 30 to 100 µM for the first, 30 to 100 µM for the second.

First: NC1CCN(C(=O)[C@H](NS(=O)(=O)c2ccc3cc(OC4CCCC4)ccc3c2)C(F)(F)c2ccc(Cl)c(OC3CCCC3)c2)CC1 [Compound 170-2, (S)—N-(3-(4-aminopiperidin-1-yl)-1-(4-chloro-3-(cyclopentyloxy)phenyl)-1,1-difluoro-3-oxopropan-2-yl)-6-(cyclopentyloxy) naphthalene-2-sulfonamide trifluoroacetate]
Second: COc1cc(C(F)(F)[C@H](NS(=O)(=O)c2ccc3cc(OC4CCCC4)ccc3c2)C(=O)N2C[C@H]3CNC[C@H]3C2)ccc1-c1ccc(Cl)cc1 [Compound 197-1, N-((R)-1-(4′-chloro-2-methoxy-[1,1′-biphenyl]-4-yl)-1,1-difluoro-3-((3aR,6aS)-hexahydropyrrolo[3,4-c]pyrrol-2(1H)-yl)-3-oxopropan-2-yl)-6-(cyclopentyloxy)naphthalene-2-sulfonamide]
The IC50 of the first is higher: 10 to 30 µM for the first, < 1 µM for the second. The second is the more potent here.

`O=C([C@H](NS(=O)(=O)c1ccc2cc(OC3CCCC3)ccc2c1)C(F)(F)c1ccc(-c2ccc(Cl)cc2)cc1)N1CC[C@@H]2CNC[C@@H]21` [Compound 192-2, N-((S)-1-(4′-chloro-[1,1′-biphenyl]-4-yl)-1,1-difluoro-3-((3aR,6aR)-hexahydropyrrolo[3,4-b]pyrrol-1(2H)-yl)-3-oxopropan-2-yl)-6-(cyclopentyloxy)naphthalene-2-sulfonamide] was tested, and the IC50 was 10 to 30 µM.
